The text below walks through data of patent US20260216099A1, “BROMOQUINONE AS A TREATMENT FOR OBESITY AND CANCER” (priority 2023, published 2026).

“Also recorded” adds a separate entry of the source.

For data set [1], the system named is rM-1, ARPE-19 and Hep G2 cell lines. As to the kind of experiment: Cell counting assay, statements for the three cell lines together. Type of data set: cell-based, Rat; Human. The following applies: for effect on cell growth: same conditions as bromoquinone (up to 10 μM, 48 hours). How it is done: (§1) Cell Counting Assay: For the cell counting assay, rMc-1, ARPE-19, and HepG2 cells were cultured in DMEM with 4.5 g/L glucose supplemented with 10% fetal bovine serum (FBS), penicillin, and streptomycin. These cells were seeded at 50% confluency before bromoquinone treatment. About 5,000 cells were seeded in a 24-well plate and treated with various amounts of bromoquinone and incubated at 37° C. under 5% CO2. Cell growth was examined by cell counting stained with Trypan Blue. The Raw264.7 and L929 cells were cultured in DMEM supplemented with 10% (vol/vol) heat-inactivated FBS (SH30910.03; Hyclone) at 37° C. and 5% CO2. THP-1 cells were cultured in RPMI-1640 medium supplemented with 10% (v/v) heat-inactivated FBS at 37° C. and 5% CO2.
(§2) When the cell lines (rM-1, ARPE-19 and Hep G2) were cultured for 48 hours in their corresponding media in the presence of various concentrations (0, 0.5, 2.5. 5, and 10 μM) of bromoquinone, the cell survival rate decreased as the concentration of bromoquinone increased. When the concentration of bromoquinone was 10 μM, the cell survival rate decreased by 70-80%, while under the same conditions, no effect on cell growth was observed if normal coenzyme Q or Q0C10 was used.

The test system of data set [2] is commercially available cell lines. The data set can be described thus: Cell growth of commercially available cell lines (halogen-Q0C10). It is filed as cell-based. Particulars: many commercially available cell lines.
In data set [3] the test system is isolated beef liver mitochondria. The data set can be described thus: Energy coupling (oxidative phosphorylation) in isolated mitochondria treated with bromoquinone. Type of data set: biochemical. Particulars: NADH linked substrate; 2 instead of 3. As for the experimental part:
Introducing an electron-withdrawing group such as bromine should have an effect on the redox potential and UV spectrum, and this is indeed the case. Bromoquinone has a higher redox potential than that of Coenzyme Q10, by about 30 mV and UV spectral shift by 24 nm. A decrease of approximately 30% of energy conservation efficiency has been observed in isolated mitochondria that were treated with bromoquinone. This decrease may be due to the loss of energy conservation site II at Complex III in the bromoquinone-treated mitochondria (2).
When the rats were given 0.3 mL of a high fat mixture daily in addition to normal diet, a significant increase in weight gain was observed. […] Using NADH linked substrate 6-Br-Q0C10 treated mitochondria has a P/O ratio of 2 instead of 3. 6-Br-Q0C10 causes a by-passing of oxidative phosphorylation site 2 because of its high redox-potential.

The subject of data set [4] is rMC-1 cells. The data set can be described thus: Cell counting assay (Trypan Blue), cell growth. Particulars: 48 hours. Type of data set: cell-based, Rat. As for the experimental part: as §1, §2
Data set [5] relates to ARPE19 cells. As to the kind of experiment: Cell counting assay (Trypan Blue), cell growth. It is filed as cell-based, Human. Particulars: 48 hours. How it is done: as §1, §2
The subject of data set [6] is Hep G2 cells. As to the kind of experiment: Cell counting assay (Trypan Blue), cell growth. It is filed as cell-based, Human. The following applies: for Effect of Bromoquinone on the Growth (cell survival, % of 0 μM): Hep G2 cells, 48 hours. How it is done: as §1, §2
Data set [7] has as its system L-929, Raw 264-7 and THP-1 cells. The data set can be described thus: Cell growth, live cell number by Trypan Blue (FIG. 3A). Type of data set: cell-based, Mouse; Human. How it is done:
as §1
Cell Attachment Assay: For the cell attachment assay, Raw264.7 and L929 cells were pre-seeded (100,000 cells/well) in 12-well plates (overnight incubation) at 37° C. and 5% CO2. Bromoquinone was added 24 hours after pre-seeding, and cell attachment was determined by counting attached cells at 72 hours post-treatment. […] Bromoquinone was added 24 hours after pre-seeding, and cell attachment was determined by counting attached cells at 72 hours post-treatment. […] The live cell number was determined by Trypan Blue staining. […]

Data set [8] has the same test system. As to the kind of experiment: Cell attachment assay (FIG. 3B). It is filed as cell-based, Mouse; Human. The following applies: 72 hours post-treatment. As for the experimental part:
(§3) Cell Attachment Assay: For the cell attachment assay, Raw264.7 and L929 cells were pre-seeded (100,000 cells/well) in 12-well plates (overnight incubation) at 37° C. and 5% CO2. Bromoquinone was added 24 hours after pre-seeding, and cell attachment was determined by counting attached cells at 72 hours post-treatment. THP-1 cells were pre-seeded (100,000 cells/well) in the presence of 320 nM phorbol-12-myristate-13-acetate (PMA) in 12-well plates (overnight incubation) at 37° C. and 5% CO2. Bromoquinone was added 24 hours after pre-seeding, and cell attachment was determined by counting attached cells at 72 hours post-treatment. Raw264.7, L929, and THP-1 cells were cultured in 12-well plates (100,000 cells/well) in the presence of bromoquinone for 72 hours at 37° C. and 5% CO2. The live cell number was determined by Trypan Blue staining. HEK293 and HeLa cells were cultured in DMEM supplemented with 10% (v/v) fetal bovine serum and 1% (v/v) penicillin-streptomycin. INS-1 cells were cultured in RPMI 1640 media supplemented with 10% (v/v) FBS and 1% (v/v) penicillin-streptomycin. All the cells were incubated at 37° C. and 5% CO2 atmosphere in 10-cm plates. When the cells reached about-80% confluency, they were harvested and cultured on 96-well plates with 5×10^3 cells seeded per well. […]

Data set [9] deals with ADSC cells. As to the kind of experiment: Cell growth by cell counting, Trypan Blue and hemocytometer (FIG. 4A). It is filed as cell-based, Human. As for the experimental part:
(§4) FIGS. 4A, 4B, and 4C illustrate the effect of bromoquinone on cell growth of HEK293, HeLa, INS-1, and ADSC cells. […] Cells were stained with bisbenzimide.
(§5) Cell Attachment Assay: For the cell attachment assay, Raw264.7 and L929 cells were pre-seeded (100,000 cells/well) in 12-well plates (overnight incubation) at 37° C. and 5% CO2. Bromoquinone was added 24 hours after pre-seeding, and cell attachment was determined by counting attached cells at 72 hours post-treatment. THP-1 cells were pre-seeded (100,000 cells/well) in the presence of 320 nM phorbol-12-myristate-13-acetate (PMA) in 12-well plates (overnight incubation) at 37° C. and 5% CO2. Bromoquinone was added 24 hours after pre-seeding, and cell attachment was determined by counting attached cells at 72 hours post-treatment. Raw264.7, L929, and THP-1 cells were cultured in 12-well plates (100,000 cells/well) in the presence of bromoquinone for 72 hours at 37° C. and 5% CO2. The live cell number was determined by Trypan Blue staining. HEK293 and HeLa cells were cultured in DMEM supplemented with 10% (v/v) fetal bovine serum and 1% (v/v) penicillin-streptomycin. INS-1 cells were cultured in RPMI 1640 media supplemented with 10% (v/v) FBS and 1% (v/v) penicillin-streptomycin. All the cells were incubated at 37° C. and 5% CO2 atmosphere in 10-cm plates. When the cells reached about-80% confluency, they were harvested and cultured on 96-well plates with 5×10^3 cells seeded per well. For each cell line, three 96-well plates were prepared—one for MTT assay and two for bisbenzimide-based nuclear fluorescent stain assay. After 24-hour incubation, the culture medium was replaced by the same medium containing various concentrations (0, 4, 8, 16, 32, and 64 μM) of bromoquinone. Three replicates were made for each condition. The plates then continued to be incubated for another 24 hours (two plates) or 48 hours (one plate). One plate with 24-hour treatment was used for the MTT cell viability assay. The other 24-hour treatment plate and the 48-hour treatment plate were used for the Bisbenzimide-based nuclear fluorescent stain cell imaging.
(§6) As described above, cell lines were cultured in their corresponding media in the presence of various concentrations of bromoquinone (0, 2, 4, 8, 16, 32, and 64 μM) for 48 and 72 hours. […] Similar results were obtained using the MTT assay (FIG. 4B). As expected, when the incubation was prolonged to 72 hours, more inhibition was observed.

Data set [10] relates to HEK-293 cells. Described as above. It is filed as cell-based, Human. As for the experimental part:
as §4, §5, §6

Data set [11] concerns HeLa cells. The data set is described as above. Type of data set: cell-based, Human. As for the experimental part:
as §4, §5, §6

Data set [12] deals with INS-1 cell line. The data set can be described thus: Cell growth inhibition (FIG. 4). Type of data set: cell-based, Rat. Particulars: INS-1, highest concentration tested. As for the experimental part: as §4
as §3, with “plates.” for “plates. When the cells reached about-80% confluency, they were harvested and cultured on 96-well plates with 5×10^3 cells seeded per well.”

Data set [13] is described as follows: Rat growth study: body weight gain, toxicity, food and water consumption. It is filed as in vivo. As for the experimental part:
6-Br-Q0C10: Crude 6-Br-Q0C10 was available in the laboratory. It was further purified to homogeneity using thin layer chromatography. The purity of 6-Br-Q0C10 was confirmed by its absorption peak at 303 nm and the concentration was determined spectrophotometrically, using a millimolar extinction coefficient of 20 cm^−1 (13), Carboyxmethyl cellulose was obtained from Amazon. Olive oil and unsalted butter were obtained from the local supermarket. 9 Male F344 (born on Sep. 28, 2023) were purchased from Evigo RMS, Inc, 8520 Allison Pointe Blvd, Suite 4000, Indianapolis, Indiana 46250 on Oct. 17, 2023.
The rats were divided into three groups, three rats in each group. We followed their growth by body weight gained daily until Nov. 5, 2023, and then one group of rats received the 6-Br-Q0C10 treatment, and the second group received only the carrier media used to dissolve the 6-Br-Q0C10, and the third group was used as control without any treatment. All rats had free access to rat chow and water.
Various concentrations of 6-Br-Q0C10 were dissolved in 1% and 1.5% CMC, 40% ethanol, and a mixture of oil and unsalted butter (67:33). 6-Br-Q0C10 solutions and carriers were given to the rats by IG in a volume of 0.3 mL daily. The body weights of the rats were measured and recorded individually and as a group. JACUC Protocol No: SC2101

Data set [14] can be described thus: Redox potential. Particulars: difference to Coenzyme Q10. Type of data set: physicochemical.

As to `CCCCCCCCCCC1=C(C)C(=O)C(OC)=C(OC)C1=O` [Q0C10, 2,3-dimethoxy-5-decyl-6-methyl-1,4-benzoquinone], the “effect on cell growth” value in [1] is “no effect”.

Take `COC1=C(OC)C(=O)C(CC=C(C)CCC=C(C)CCC=C(C)CCC=C(C)CCC=C(C)CCC=C(C)CCC=C(C)CCC=C(C)CCC=C(C)CCC=C(C)C)=C(C)C1=O` [coenzyme Q10, 2,3-dimethoxy-5-(isoprenyl)10-6-methyl-1,4-benzoquinone]: in [1], the “effect on cell growth” value is reported as “no effect”.

As to `CCCCCCCCCCC1=C(Cl)C(=O)C(OC)=C(OC)C1=O` [6-Cl-Q0C10, 6-Chloro-2,3-dimethoxy-5-decyl-1,4-benzoquinone], in data set [2], the reducing cell growth result is reported as “effective in reducing cell growth”.

Consider `CCCCCCCCCCC1=C(Br)C(=O)C(OC)=C(OC)C1=O` [6-Br-Q0C10, 6-Bromo-2,3-dimethoxy-5-decyl-1,4-benzoquinone], for which the P/O ratio in data set [3] is recorded as 2. The “Effect of Bromoquinone on the Growth (cell survival, % of 0 μM)” value (“Effect … (cell survival, % of 0 μM)” below) in data set [4] (0.5 μM bromoquinone) was 88.2%; in [4] (1 μM bromoquinone), 80.1%; in data set [4] (2.5 μM bromoquinone) it was 68.1%; in [4] (5 μM bromoquinone), 36.2%; in data set [4] (10 μM bromoquinone), 27.9%; in data set [5] (0.5 μM bromoquinone) it was 85.4%. Moreover, the “Effect … (cell survival, % of 0 μM)” value in data set [5] (1 μM bromoquinone) was 80.9%; in [5] (2.5 μM bromoquinone), 60.0%; in data set [5] (5 μM bromoquinone), 41.9%; in [5] (10 μM bromoquinone), 26.6%; in data set [6] (0.5 μM bromoquinone), 103.1%; in data set [6] (1 μM bromoquinone), 107.8%. The “Effect … (cell survival, % of 0 μM)” value worked out at 104.2% in [6] (2.5 μM bromoquinone), 98.1% in data set [6] (5 μM bromoquinone) and 93.3% in [6] (10 μM bromoquinone). For the same compound, the “effect on Hep-G2 (cell growth)” value in data set [6] (even at 10 μM) is on record as “very small”. In addition, the inhibition (commonly how much of the control response was suppressed) at 50 µM is not above 50% in data set [7] and 70% in data set [8]. For the same compound, the “inhibition (cell growth, cell counting)” value worked out at 82% in [9] (48 hours of treatment, FIG. 4A); 69% in data set [10] (HEK-293, 48 hours of treatment, FIG. 4A); 66% in [11] (48 hours of treatment, FIG. 4A). Besides, the “inhibition (cell growth)” value is reported as 90% in data set [9] (72 hours); 95% in data set [10] (HEK-293, 72 hours); 97% in [11] (72 hours); “less than 20%” in [12]. In data set [13] (6-Br-Q0C10 treated rats), the “food and water consumption” value is on record as “slight increase”. In addition, the “reduction in body weight gain” value in data set [13] (rats, 0.5 mg/IG in 0.3 mL oil/butter (67%/33%) daily, compared to carrier mixture only) is recorded as 30-40%. Further, the “toxicity effect on rats” value in data set [13] (rats, even at the highest concentrations used) is on record as “no toxicity effect”. The “effect on growth (body weight gain)” value in [13] (rats, low concentrations, growth period) is recorded as “little effect; also recorded: slight”. The toxicity result in [13] (rats, lower concentrations) is “no toxicity”. Further, the “redox potential higher than that of Coenzyme Q10” value in [14] is recorded as “about 30 mV”. The “decrease of cell survival rate” value in data set [1] (10 μM, 48 hours) was 70-80%.
